According to PubChem BioAssay AID1259411 (Chemical Carcinogenesis Research Information System (CCRIS), 2018):
Calls of active or inactive are those of the source. No rule for the calls is given here.

Tested on: rodent carcinogenicity bioassays, tumor incidence
Assay: CCRIS carcinogenicity studies
Method in brief: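 Archive of carcinogenicity, mutagenicity, tumor promotion and tumor inhibition results drawn from journals, NCI reports and other sources, expert-reviewed; covers 1985-2011 and is no longer updated.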

In the case of `COc1ccc(N)cc1N`, the carcinogen call (Species: MOUSE, Strain/Sex: B6C3F1/FEMALE, Route: ORAL, Dose: 0, 0.12, 0.24% IN DIET FOR 78 WK (STUDY DURATION: 96-97 WK), Dose: 0, 0.12, 0.24% IN DIET FOR 78 WK (STUDY DURATION: 96-97 WK), Tumor Site: Type of Lesion: THYROID GLAND: FOLLICULAR CELL ADENOMA OR CARCINOMA) is reported as “active; positive”, the carcinogen call (Species: MOUSE, Strain/Sex: B6C3F1/MALE, Route: ORAL, Dose: 0, 0.12, 0.24% IN DIET FOR 78 WK (STUDY DURATION: 96-97 WK), Dose: 0, 0.12, 0.24% IN DIET FOR 78 WK (STUDY DURATION: 96-97 WK), Tumor Site: Type of Lesion: THYROID GLAND: FOLLICULAR CELL ADENOMA) is reported as “active; positive” and the carcinogen call (Species: RAT, Strain/Sex: F344/FEMALE, Route: ORAL, Dose: 0, 0.12, 0.5% TWA, IN DIET FOR 78 WK (STUDY DURATION: 107-110 WK), Dose: 0, 0.12, 0.5% TWA, IN DIET FOR 78 WK (STUDY DURATION: 107-110 WK), Tumor Site: Type of Lesion: THYROID GLAND: ADENOCARCINOMA (NOS) OR FOLLICULAR CELL CARCINOMA OR PAPILLARY CYSTADENOCARCINOMA (NOS), EAR (ZYMBAL GLAN) is reported as “active; positive”. The carcinogen call (Species: RAT, Strain/Sex: F344/MALE, Route: ORAL, Dose: 0, 0.12, 0.5% TWA, IN DIET FOR 78 WK (STUDY DURATION: 107-109 WK), Dose: 0, 0.12, 0.5% TWA, IN DIET FOR 78 WK (STUDY DURATION: 107-109 WK), Tumor Site: Type of Lesion: THYROID GLAND: C CELL ADENOMA OR CARCINOMA, ADENOCARCINOMA (NOS), ADENOCARCINOMA (NOS) OR PAPILLARY ADENOCARCINOMA OR FO) was “active; positive”.
In the case of `CC(C)(C)c1cc(O)ccc1O`, the carcinogen call (Species: MOUSE, Strain/Sex: B6C3F1/FEMALE, Route: ORAL, Dose: 0, 1250, 2500, 5000 PPM IN DIET FOR 105 WK (STUDY DURATION: 105 WK), Dose: 0, 1250, 2500, 5000 PPM IN DIET FOR 105 WK (STUDY DURATION: 105 WK)) is reported as “inactive; negative”, the carcinogen call (Species: MOUSE, Strain/Sex: B6C3F1/MALE, Route: ORAL, Dose: 0, 1250, 2500, 5000 PPM IN DIET FOR 104 WK (STUDY DURATION: 104 WK), Dose: 0, 1250, 2500, 5000 PPM IN DIET FOR 104 WK (STUDY DURATION: 104 WK)) is reported as “inactive; negative” and the carcinogen call (Species: RAT, Strain/Sex: F344/FEMALE, Route: ORAL, Dose: 0, 1250, 2500, 5000 PPM IN DIET FOR 129 WK ADMINISTERED TO RATS ALSO EXPOSED IN UTERO THROUGH MOTHERS THAT RECEIVED THE, Dose: 0, 1250, 2500, 5000 PPM IN DIET FOR 129 WK ADMINISTERED TO RATS ALSO EXPOSED IN UTERO THROUGH MOTHERS THAT RECEIVED THE) is reported as “inactive; negative”. For the same compound, the carcinogen call (Species: RAT, Strain/Sex: F344/FEMALE, Route: ORAL, Dose: 0, 5000 PPM IN DIET FOR 128 WK, CONTROL AND DOSED GROUPS FED AD LIBITUM (STUDY DURATION: 128 WK)) was “inactive; negative”, the carcinogen call (Species: RAT, Strain/Sex: F344/FEMALE, Route: ORAL, Dose: 0, 5000 PPM IN DIET FOR 128 WK, CONTROL GROUP WAS WEIGHT-MATCHED TO DOSED GROUP (STUDY DURATION: 128 WK)) was “inactive; negative” and the carcinogen call (Species: RAT, Strain/Sex: F344/FEMALE, Route: ORAL, Dose: 0, 5000 PPM IN DIET FOR 130 WK, CONTROL GROUP DIET RESTRICTED TO LIMIT WEIGHTS TO 85% OF AD LIBITUM-FED GROUPS (STUDY DU) was “inactive; negative”. For the same compound, the carcinogen call (Species: RAT, Strain/Sex: F344/MALE, Route: ORAL, Dose: 0, 1250, 2500, 5000 PPM IN DIET FOR 123 WK ADMINISTERED TO RATS ALSO EXPOSED IN UTERO THROUGH MOTHERS THAT RECEIVED THE, Dose: 0, 1250, 2500, 5000 PPM IN DIET FOR 123 WK ADMINISTERED TO RATS ALSO EXPOSED IN UTERO THROUGH MOTHERS THAT RECEIVED THE) was “inactive; negative”, the carcinogen call (Species: RAT, Strain/Sex: F344/MALE, Route: ORAL, Dose: 0, 5000 PPM IN DIET FOR 102 WK, CONTROL AND DOSED GROUPS FED AD LIBITUM (STUDY DURATION; 122 WK), Dose: 0, 5000 PPM IN DIET FOR 102 WK, CONTROL AND DOSED GROUPS FED AD LIBITUM (STUDY DURATION; 122 WK)) was “inactive; negative” and the carcinogen call (Species: RAT, Strain/Sex: F344/MALE, Route: ORAL, Dose: 0, 5000 PPM IN DIET FOR 122 WK, CONTROL GROUP WAS WEIGHT-MATCHED TO DOSED GROUP (STUDY DURATION: 122 WK)) was “inactive; negative”. The carcinogen call (Species: RAT, Strain/Sex: F344/MALE, Route: ORAL, Dose: 0, 5000 PPM IN DIET FOR 130 WK, CONTROL GROUP DIET RESTRICTED TO LIMIT WEIGHTS TO 85% OF AD LIBITUM-FED GROUPS (STUDY DU) was “inactive; negative”.
In the case of `CCCCCCCCCCCCCC(=O)ON(C(C)=O)c1ccc2c(c1)Cc1ccccc1-2`, the carcinogen call (Species: RAT, Strain/Sex: F344/MALE, Route: SUBCUTANEOUS, Dose: 10.6 UMOL IN 0.2 ML DMSO-TRIOCTANOIN 1/WK FOR 6 WK, Tumor Site: Type of Lesion: INJECTION SITE: FIBROSARCOMA OR FIBROMYOSARCOMA OR FIBROLIPOSARCOMA) is reported as “active; positive”.
In the case of `COC(=O)c1ccc(C)cc1C1=NC(C)(C(C)C)C(=O)N1` (stereo not given) (tested in a mixture with another compound), the carcinogen call (Species: Mouse, Strain/Sex: CD-1/Female (65/Group), Route: Oral, Dose: 0, 130, 525, 2100 ppm 94.2% imazamethabenz-methyl in diet for 18 mo, study duration 18 mo, Dose: 0, 130, 525, 2100 ppm 94.2% imazamethabenz-methyl in diet for 18 mo, study duration 18 mo) is reported as “inactive; negative”, the carcinogen call (Species: Mouse, Strain/Sex: CD-1/Male (65/Group), Route: Oral, Dose: 0, 130, 525, 2100 ppm 94.2% imazamethabenz-methyl in diet for 18 mo, study duration 18 mo, Dose: 0, 130, 525, 2100 ppm 94.2% imazamethabenz-methyl in diet for 18 mo, study duration 18 mo) is reported as “inactive; negative” and the carcinogen call (Species: Rat, Strain/Sex: Crl:CD(SD)BR/Female (65/Group), Route: Oral, Dose: 0, 240, 1000, 4000 ppm 94.2% imazamethabenz-methyl in diet for 24 mo, study duration 24 mo, Dose: 0, 240, 1000, 4000 ppm 94.2% imazamethabenz-methyl in diet for 24 mo, study duration 24 mo) is reported as “inactive; negative”. The carcinogen call (Species: Rat, Strain/Sex: Crl:CD(SD)BR/Male (65/Group), Route: Oral, Dose: 0, 240, 1000, 4000 ppm 94.2% imazamethabenz-methyl in diet for 24 mo, study duration 24 mo, Dose: 0, 240, 1000, 4000 ppm 94.2% imazamethabenz-methyl in diet for 24 mo, study duration 24 mo) was “inactive; negative”.
In the case of `O=S(=O)(O)c1ccc(N=Nc2cc(S(=O)(=O)O)c3ccccc3c2O)c2ccccc12`, the carcinogen call (Species: MOUSE, Strain/Sex: B6C3F1/FEMALE, Route: ORAL, Dose: 0, 3000, 6000 PPM IN DIET, Dose: 0, 3000, 6000 PPM IN DIET) is reported as “inactive; negative”, the carcinogen call (Species: MOUSE, Strain/Sex: B6C3F1/MALE, Route: ORAL, Dose: 0, 3000, 6000 PPM IN DIET, Dose: 0, 3000, 6000 PPM IN DIET) is reported as “inactive; negative” and the carcinogen call (Species: RAT, Strain/Sex: F344/FEMALE, Route: ORAL, Dose: 0, 12500, 25000 PPM IN DIET, Dose: 0, 12500, 25000 PPM IN DIET) is reported as “inactive; negative”. The carcinogen call (Species: RAT, Strain/Sex: F344/MALE, Route: ORAL, Dose: 0, 6000, 12500 PPM IN DIET, Dose: 0, 6000, 12500 PPM IN DIET) was “inactive; negative”, the carcinogen call (Species: RAT, Strain/Sex: WISTAR/FEMALE, Route: ORAL, Dose: 0, 100, 400, 1200 MG/KG/D IN BASAL DIET TO PUPS OF PARENTS EXPOSED TO THE SAME DOSE LEVELS FOR 9 WK PRIOR TO MATING AND, Dose: 0, 100, 400, 1200 MG/KG/D IN BASAL DIET TO PUPS OF PARENTS EXPOSED TO THE SAME DOSE LEVELS FOR 9 WK PRIOR TO MATING AND) was “inactive; negative” and the carcinogen call (Species: RAT, Strain/Sex: WISTAR/MALE, Route: ORAL, Dose: 0, 100, 400, 1200 MG/KG/D IN BASAL DIET TO PUPS OF PARENTS EXPOSED TO THE SAME DOSE LEVELS FOR 9 WK PRIOR TO MATING AND, Dose: 0, 100, 400, 1200 MG/KG/D IN BASAL DIET TO PUPS OF PARENTS EXPOSED TO THE SAME DOSE LEVELS FOR 9 WK PRIOR TO MATING AND) was “inactive; negative”.
